Experimental data from PMC7316778 (Nature Communications, 2020).
Several values for one entry are separate records, joined by “and”; a condition that tells them apart may be missing. Identical values can stand only once. Like-named read-outs stand apart in the source and are kept apart here.

Tests used:
CDK9/cyclin T1 = CDK9/cyclin T1 (Homo sapiens, UniProt P50750); test: SelectScreen kinase assay
Description: (§1) Selectivity profiling assays were performed by the Invitrogen SelectScreen™ Services. […] The concentration of ATP was selected to be equal to the KM, unless indicated otherwise.

full-length FES^S700C = full-length FES^S700C (Homo sapiens, UniProt P07332, S700C); test: Competitive probe labeling with WEL033 in HEK293T lysate (gel-based)
PRKG2 (PKG2) = PRKG2 (PKG2) (Homo sapiens, UniProt Q13237); test: SelectScreen kinase assay
Description: as §1

STK39 (STLK3) = STK39 (STLK3) (Homo sapiens, UniProt Q9UEW8); test: SelectScreen kinase assay
Description: as §1

FGFR3 K650E = FGFR3 K650E (Homo sapiens, UniProt P22607, K650E); test: SelectScreen kinase assay; conditions: for Inhibition at 1 µM (%): FGFR3 K650E, ZLYTE, ATP Km app
Description: as §1

CASK = biological target: T1, CASK (Homo sapiens, UniProt O14936); test: SelectScreen kinase assay; conditions: for Inhibition at 1 µM (%): CASK, LanthaScreen Binding
T1 sequence (O14936 1-926): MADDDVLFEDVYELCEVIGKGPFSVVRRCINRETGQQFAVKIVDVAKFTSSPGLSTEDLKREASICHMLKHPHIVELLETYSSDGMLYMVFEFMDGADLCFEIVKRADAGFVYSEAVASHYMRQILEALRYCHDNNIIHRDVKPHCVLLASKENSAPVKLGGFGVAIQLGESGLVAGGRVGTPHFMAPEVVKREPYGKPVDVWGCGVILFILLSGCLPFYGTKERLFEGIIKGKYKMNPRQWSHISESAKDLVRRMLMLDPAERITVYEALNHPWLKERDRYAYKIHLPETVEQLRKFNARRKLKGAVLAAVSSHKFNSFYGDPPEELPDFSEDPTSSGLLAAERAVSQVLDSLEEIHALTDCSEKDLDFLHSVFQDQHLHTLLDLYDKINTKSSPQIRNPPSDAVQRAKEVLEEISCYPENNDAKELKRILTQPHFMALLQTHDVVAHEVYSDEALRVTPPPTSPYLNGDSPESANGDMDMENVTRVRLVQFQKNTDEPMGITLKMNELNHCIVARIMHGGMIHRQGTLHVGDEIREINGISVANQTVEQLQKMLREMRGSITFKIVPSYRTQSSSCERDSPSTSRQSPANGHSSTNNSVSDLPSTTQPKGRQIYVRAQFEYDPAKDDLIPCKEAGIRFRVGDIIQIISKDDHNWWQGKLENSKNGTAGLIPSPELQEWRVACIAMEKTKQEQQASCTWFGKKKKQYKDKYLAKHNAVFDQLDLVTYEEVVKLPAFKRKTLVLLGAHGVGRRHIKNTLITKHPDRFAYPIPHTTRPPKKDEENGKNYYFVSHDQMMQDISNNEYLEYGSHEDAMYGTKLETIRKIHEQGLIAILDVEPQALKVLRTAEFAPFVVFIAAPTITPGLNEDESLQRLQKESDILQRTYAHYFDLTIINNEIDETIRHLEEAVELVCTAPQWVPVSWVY
Description: as §1

PRKX = PRKX (Homo sapiens, UniProt P51817); test: SelectScreen kinase assay
Description: as §1

CDKL5 = biological target: T2, CDKL5 (Homo sapiens, UniProt O76039); test: SelectScreen kinase assay
T2 sequence (O76039 1-960): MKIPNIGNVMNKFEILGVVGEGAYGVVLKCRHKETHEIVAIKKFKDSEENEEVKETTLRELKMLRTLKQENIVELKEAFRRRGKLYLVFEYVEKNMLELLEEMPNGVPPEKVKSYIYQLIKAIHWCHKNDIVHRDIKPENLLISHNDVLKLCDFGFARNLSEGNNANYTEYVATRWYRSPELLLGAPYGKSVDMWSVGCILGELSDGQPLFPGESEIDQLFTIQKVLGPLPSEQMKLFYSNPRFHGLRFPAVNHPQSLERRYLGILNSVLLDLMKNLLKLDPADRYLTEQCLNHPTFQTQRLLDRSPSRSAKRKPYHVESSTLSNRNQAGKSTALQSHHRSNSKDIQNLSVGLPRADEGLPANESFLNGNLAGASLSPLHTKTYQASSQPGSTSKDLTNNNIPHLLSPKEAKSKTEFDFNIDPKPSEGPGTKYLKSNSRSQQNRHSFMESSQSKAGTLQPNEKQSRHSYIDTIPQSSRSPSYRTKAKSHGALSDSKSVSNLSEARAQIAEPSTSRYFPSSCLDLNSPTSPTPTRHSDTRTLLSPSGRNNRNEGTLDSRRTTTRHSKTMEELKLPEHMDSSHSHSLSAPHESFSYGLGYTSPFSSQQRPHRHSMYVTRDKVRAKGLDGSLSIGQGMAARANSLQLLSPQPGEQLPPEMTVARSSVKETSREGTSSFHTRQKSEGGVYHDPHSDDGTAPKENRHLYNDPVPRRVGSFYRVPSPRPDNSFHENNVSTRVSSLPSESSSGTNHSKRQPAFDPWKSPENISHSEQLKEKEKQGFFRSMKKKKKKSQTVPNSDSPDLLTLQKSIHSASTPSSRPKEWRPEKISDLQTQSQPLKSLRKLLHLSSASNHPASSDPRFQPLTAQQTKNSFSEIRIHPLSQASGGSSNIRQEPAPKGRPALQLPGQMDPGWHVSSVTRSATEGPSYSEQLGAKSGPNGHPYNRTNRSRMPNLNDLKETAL
Description: as §1

[1] = 1 h, 1 μM WEL028, 1 h preincubation

Chain of FGFR3 K650E (P22607 23-806 K650E): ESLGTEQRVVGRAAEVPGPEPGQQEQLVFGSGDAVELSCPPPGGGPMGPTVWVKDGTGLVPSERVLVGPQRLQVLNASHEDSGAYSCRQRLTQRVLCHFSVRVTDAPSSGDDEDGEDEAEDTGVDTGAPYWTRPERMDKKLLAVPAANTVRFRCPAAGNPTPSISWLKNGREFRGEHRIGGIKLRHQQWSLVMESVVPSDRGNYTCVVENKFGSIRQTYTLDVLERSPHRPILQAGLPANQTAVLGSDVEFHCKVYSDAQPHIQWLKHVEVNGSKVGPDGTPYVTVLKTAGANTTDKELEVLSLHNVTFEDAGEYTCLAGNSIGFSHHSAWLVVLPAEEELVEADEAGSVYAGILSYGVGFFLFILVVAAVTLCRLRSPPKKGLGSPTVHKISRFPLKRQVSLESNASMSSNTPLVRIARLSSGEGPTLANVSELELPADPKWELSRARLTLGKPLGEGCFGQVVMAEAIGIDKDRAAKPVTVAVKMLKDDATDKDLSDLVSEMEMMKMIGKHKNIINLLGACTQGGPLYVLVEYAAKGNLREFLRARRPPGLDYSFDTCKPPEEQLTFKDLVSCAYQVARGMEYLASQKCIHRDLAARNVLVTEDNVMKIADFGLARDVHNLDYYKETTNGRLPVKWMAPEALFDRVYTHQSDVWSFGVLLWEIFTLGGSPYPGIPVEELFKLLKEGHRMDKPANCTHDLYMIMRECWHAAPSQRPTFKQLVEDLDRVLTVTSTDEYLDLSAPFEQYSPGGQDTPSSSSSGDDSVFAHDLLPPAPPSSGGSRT
Chain of PRKX (P51817 whole entry): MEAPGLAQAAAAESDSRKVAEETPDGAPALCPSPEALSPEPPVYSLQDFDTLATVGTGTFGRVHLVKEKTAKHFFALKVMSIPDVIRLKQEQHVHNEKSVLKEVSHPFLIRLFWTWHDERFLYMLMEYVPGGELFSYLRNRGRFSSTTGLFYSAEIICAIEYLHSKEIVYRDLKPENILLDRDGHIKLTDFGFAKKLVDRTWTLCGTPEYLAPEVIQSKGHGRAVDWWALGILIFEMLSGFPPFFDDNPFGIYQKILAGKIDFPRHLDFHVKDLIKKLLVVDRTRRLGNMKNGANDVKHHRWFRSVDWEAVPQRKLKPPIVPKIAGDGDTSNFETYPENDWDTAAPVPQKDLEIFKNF
Chain of CDK9/cyclin T1 (P50750 whole entry): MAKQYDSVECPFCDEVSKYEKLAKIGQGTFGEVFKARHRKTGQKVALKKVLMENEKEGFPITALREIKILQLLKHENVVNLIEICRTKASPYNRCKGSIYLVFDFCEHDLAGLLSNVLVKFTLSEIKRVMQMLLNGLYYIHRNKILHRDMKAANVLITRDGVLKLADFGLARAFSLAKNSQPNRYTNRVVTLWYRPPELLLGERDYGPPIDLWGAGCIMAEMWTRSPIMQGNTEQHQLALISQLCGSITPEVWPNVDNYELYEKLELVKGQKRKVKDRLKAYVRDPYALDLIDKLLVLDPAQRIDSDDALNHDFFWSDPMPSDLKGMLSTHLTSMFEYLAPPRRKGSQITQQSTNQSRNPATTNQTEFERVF
Chain of CDK9/cyclin T1 (O60563 whole entry partner): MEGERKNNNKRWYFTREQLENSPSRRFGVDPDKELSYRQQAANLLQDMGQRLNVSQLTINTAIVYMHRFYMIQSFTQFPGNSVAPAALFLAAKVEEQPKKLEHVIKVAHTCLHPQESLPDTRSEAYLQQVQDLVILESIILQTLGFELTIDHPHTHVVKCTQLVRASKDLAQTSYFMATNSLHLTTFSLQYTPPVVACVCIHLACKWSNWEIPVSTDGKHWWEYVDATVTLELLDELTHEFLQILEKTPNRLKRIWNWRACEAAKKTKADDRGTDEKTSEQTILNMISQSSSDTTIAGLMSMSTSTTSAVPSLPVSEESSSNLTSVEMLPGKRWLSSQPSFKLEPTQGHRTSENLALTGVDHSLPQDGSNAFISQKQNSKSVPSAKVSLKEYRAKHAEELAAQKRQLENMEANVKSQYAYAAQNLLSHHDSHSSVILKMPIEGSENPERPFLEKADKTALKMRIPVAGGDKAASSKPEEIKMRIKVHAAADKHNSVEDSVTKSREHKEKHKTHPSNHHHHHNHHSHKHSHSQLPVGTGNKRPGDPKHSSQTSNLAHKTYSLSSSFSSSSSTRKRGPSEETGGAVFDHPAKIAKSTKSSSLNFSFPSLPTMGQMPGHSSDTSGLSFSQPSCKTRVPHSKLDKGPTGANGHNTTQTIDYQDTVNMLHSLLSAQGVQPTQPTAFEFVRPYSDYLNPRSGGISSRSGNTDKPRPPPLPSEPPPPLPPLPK
Chain of PRKG2 (PKG2) (Q13237 whole entry): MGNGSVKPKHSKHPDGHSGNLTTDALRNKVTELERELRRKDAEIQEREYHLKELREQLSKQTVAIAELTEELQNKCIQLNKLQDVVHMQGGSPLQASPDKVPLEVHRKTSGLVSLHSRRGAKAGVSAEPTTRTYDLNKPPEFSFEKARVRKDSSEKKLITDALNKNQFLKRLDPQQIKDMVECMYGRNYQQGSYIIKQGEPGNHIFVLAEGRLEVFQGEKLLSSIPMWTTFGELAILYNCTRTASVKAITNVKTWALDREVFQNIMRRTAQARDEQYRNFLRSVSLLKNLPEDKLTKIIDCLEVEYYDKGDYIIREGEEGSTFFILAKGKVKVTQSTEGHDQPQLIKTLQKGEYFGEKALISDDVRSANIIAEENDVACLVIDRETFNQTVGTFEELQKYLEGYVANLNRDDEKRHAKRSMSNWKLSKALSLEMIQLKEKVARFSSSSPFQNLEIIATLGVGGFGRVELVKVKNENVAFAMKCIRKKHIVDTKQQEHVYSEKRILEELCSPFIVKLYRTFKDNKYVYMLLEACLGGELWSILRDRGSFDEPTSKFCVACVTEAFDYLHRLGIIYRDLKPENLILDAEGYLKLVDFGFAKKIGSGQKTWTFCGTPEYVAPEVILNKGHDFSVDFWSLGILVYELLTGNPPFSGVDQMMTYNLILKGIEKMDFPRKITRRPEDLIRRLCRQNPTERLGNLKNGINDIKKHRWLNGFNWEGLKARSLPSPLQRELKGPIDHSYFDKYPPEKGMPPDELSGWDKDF
Chain of full-length FES^S700C (P07332 whole entry S700C): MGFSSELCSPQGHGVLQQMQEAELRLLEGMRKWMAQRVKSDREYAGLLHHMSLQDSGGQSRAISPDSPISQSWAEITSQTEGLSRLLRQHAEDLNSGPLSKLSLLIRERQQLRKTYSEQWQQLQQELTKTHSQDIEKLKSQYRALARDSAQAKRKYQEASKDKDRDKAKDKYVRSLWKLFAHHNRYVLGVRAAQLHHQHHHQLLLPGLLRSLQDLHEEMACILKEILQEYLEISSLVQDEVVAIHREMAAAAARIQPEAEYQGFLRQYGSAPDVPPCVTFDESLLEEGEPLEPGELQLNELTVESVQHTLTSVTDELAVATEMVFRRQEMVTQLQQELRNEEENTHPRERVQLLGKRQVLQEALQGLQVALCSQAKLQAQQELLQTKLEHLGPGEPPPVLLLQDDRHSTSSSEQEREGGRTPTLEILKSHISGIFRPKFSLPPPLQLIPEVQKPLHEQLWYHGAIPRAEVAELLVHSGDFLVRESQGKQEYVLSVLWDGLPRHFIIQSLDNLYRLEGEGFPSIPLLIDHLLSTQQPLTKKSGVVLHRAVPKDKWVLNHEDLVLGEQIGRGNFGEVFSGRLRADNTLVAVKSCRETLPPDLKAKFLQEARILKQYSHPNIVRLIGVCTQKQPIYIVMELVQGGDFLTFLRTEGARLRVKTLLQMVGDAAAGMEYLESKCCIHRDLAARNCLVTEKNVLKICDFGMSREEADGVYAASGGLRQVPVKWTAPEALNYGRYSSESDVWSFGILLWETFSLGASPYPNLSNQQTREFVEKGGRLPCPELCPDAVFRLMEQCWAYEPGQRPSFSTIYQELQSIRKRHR

With `C#CCOc1ccc(Nc2ncc(Cl)c(Nc3ccccc3NC(=O)C=C)n2)c(OC)c1` [Compound 6] the inhibition at 1 µM (CDK9/cyclin T1; [1]) was 16%, the “Inhibition at 1 µM (%)” value (CDK9/cyclin T1; CDK9/cyclin T1, 1 µM, Adapta, ATP Km app, listed as WEL028, 1 µM) was 12% and the inhibition at 1 µM (CDK9/cyclin T1; read-out: Inhibition at 1 µM (%), CDK9/cyclin T1, 1 µM, Adapta, ATP Km app) was 20%. For the same compound, the IC50 (full-length FES^S700C) was 12.6 nM, the “Inhibition at 1 µM (%)” value (PRKG2 (PKG2); 1 µM, ZLYTE, ATP Km app) was 13% and the inhibition at 1 µM (PRKG2 (PKG2); [1]) was 4%. The “Inhibition at 1 µM (%)” value (STK39 (STLK3); 1 µM, LanthaScreen Binding, listed as WEL028, 1 µM) was 6%, the inhibition at 1 µM (STK39 (STLK3); [1]) was 8% and the inhibition at 1 µM (STK39 (STLK3); read-out: Inhibition at 1 µM (%), 1 µM, LanthaScreen Binding) was 11%. For the same compound, the inhibition at 1 µM (FGFR3 K650E; [1]) was 8%, the “Inhibition at 1 µM (%)” value (FGFR3 K650E) was 12% and the “Inhibition at 1 µM (%)” value (FGFR3 K650E; listed as WEL028, 1 µM) was 4%. The inhibition at 1 µM (CASK; [1]) was -7%, the “Inhibition at 1 µM (%)” value (CASK) was -11% and the “Inhibition at 1 µM (%)” value (CASK; listed as WEL028, 1 µM) was -4%. The “Inhibition at 1 µM (%)” value (PRKX; 1 µM, ZLYTE, ATP Km app, listed as WEL028, 1 µM) was -6% and 0%, the inhibition at 1 µM (PRKX; [1]) was -3% and the inhibition at 1 µM (CDKL5; [1]) was 8%. The “Inhibition at 1 µM (%)” value (CDKL5; CDKL5, 1 µM, ZLYTE, ATP Km app, listed as WEL028, 1 µM) was 9% and the inhibition at 1 µM (CDKL5; read-out: Inhibition at 1 µM (%), CDKL5, 1 µM, ZLYTE, ATP Km app) was 7%.
